# Source: patent US20100108086A1, “TOBACCO AND TOBACCO PACKAGING MATERIAL FOR PREVENTING OR REDUCING TOBACCO-ASSOCIATED INJURY IN THE AERODIGESTIVE TRACT OF A SUBJECT” (Technion Research & Development Foundation Ltd, priority 2007, published 2010)
# Experiments:
# [1] = test system: oral peroxidase (OPO); assay: Oral peroxidase (OPO) activity in saliva, NBS-SCN assay; assay type: biochemical, human; conditions: for OPO activity in presence of aldehydes present in TS: 80 μM acrolein, 20 μM crotonaldehyde (FIG. 11)
# [2] = test system: lymphocytes; assay: Western immunoblotting analysis of lymphocyte protein carbonylation; assay type: cell-based, human
# From the text: Western immunoblotting analysis of protein carbonylation: Salivary proteins were separated by SDS-PAGE using a 10% gel and electro-blotted onto nitrocellulose membranes, as previously described (14). The Oxyblot Kit (Intergen Co, Purchase N.Y.) was used with anti-dinitrophenyhydrazine (DNPH) antibodies to label carbonylated proteins. Protein carbonylation levels were then visualized by reacting labelled blots with a secondary HRP-conjugated anti-rabbit antibody followed by ECL detection of secondarily labelled proteins, as previously described (14).
# (§1) Lymphocyte isolation: Blood from 10 consenting, healthy, non-smoking subjects, 5 males and 5 females ranging from 18-55 years of age, was drawn into EDTA-containing vacutainers. Lymphocytes were isolated by Ficoll-Hypaque (Sigma) gradient centrifugation according to the manufacturer's instructions and lymphocytes were suspended at 10^7 cells/ml PBS (Beit-Ha'emek Industries, Israel), and used immediately in experiments.
# Treatment of lymphocytes with TS in the presence of saliva: Exposure of lymphocytes to TS was carried out by attaching a Time cigarette (capable of removing particles>[…] in diameter) in which the filter tip was removed to a Cambridge filter which was combined with a vacuum system to aspirate gas-phase TS inside sealed 250 ml flasks containing lymphocytes suspended in 12-15 ml PBS, as previously described (14, 15). A reproducible vacuum was created in the flask and upon application of vacuum for 5 s, 80-100 ml of TS from the lit cigarette was drawn into the flask. […] Saliva treatment of lymphocytes was performed by suspending these in PBS supplemented with 30% (v/v) saliva. Following treatment with the TS of 0.5 cigarettes, flasks were incubated at 37° C. for 20 min in a metabolic shaker and subjected to a further 4 treatments with TS, as described above.
# Western immunoblotting analysis of lymphocyte protein carbonylation: Lymphocytes were washed twice in PBS following treatment by centrifugation at 2,000 rpm for 2 minutes to remove saliva and other components of the incubation medium. Lymphocytes were then centrifuged at 14,000 rpm for 1 minute and lysed by sonication for 10 seconds in lysis buffer containing 20 mM Tris pH 7.4, 1 mM EGTA, 1 mM PMSF, 50 μM NaVO4 and 50 mM NaF. Lysates were centrifuged at 14,000 rpm for 1 minute and supernatants were harvested for analysis. Carbonylation analysis was performed as described above.
# [3] = test system: lymphocytes; assay: Lymphocyte survival, Trypan Blue exclusion assay; assay type: cell-based, human; conditions: for % survival of TS + saliva-treated lymphocytes, Mean: 1 mM GSH; for death rates at 80 minutes / lymphocyte survival rates after 20 minutes: both, human
# Procedure: Saliva collection: Saliva was collected from healthy subjects, 3 males and 3 females ranging from 21-47 years of age, under non-stimulatory conditions in a quiet room during the morning between 8 am and noon. Saliva collection was performed at least 1 h after eating by spitting into a recipient for 10 minutes, as previously described (43). Following collection, saliva was immediately centrifuged at 800×g for 10 min at 4° C. to remove cells and cell debris and the resulting supernatant was used for biochemical analyses.
# as §1
# A reproducible vacuum was created in the flask and upon application of vacuum for 5 s, 80-100 ml of TS from the lit cigarette was drawn into the flask. […] Saliva treatment of lymphocytes was performed by suspending these in PBS supplemented with 30% (v/v) saliva. Following treatment with the TS of 0.5 cigarettes, flasks were incubated at 37° C. for 20 min in a metabolic shaker and subjected to a further 4 treatments with TS, as described above.
# Measurement of lymphocyte survival: Lymphocyte viability was assessed by Trypan Blue exclusion assay.
# [4] = target: T1, MPO (Homo sapiens, UniProt P05164); assay: Control MPO activity (commercial MPO) in presence of dapsone; assay type: biochemical; conditions: 150 μM dapsone
# T1 construct: purchased
# T1 sequence (P05164 49-745): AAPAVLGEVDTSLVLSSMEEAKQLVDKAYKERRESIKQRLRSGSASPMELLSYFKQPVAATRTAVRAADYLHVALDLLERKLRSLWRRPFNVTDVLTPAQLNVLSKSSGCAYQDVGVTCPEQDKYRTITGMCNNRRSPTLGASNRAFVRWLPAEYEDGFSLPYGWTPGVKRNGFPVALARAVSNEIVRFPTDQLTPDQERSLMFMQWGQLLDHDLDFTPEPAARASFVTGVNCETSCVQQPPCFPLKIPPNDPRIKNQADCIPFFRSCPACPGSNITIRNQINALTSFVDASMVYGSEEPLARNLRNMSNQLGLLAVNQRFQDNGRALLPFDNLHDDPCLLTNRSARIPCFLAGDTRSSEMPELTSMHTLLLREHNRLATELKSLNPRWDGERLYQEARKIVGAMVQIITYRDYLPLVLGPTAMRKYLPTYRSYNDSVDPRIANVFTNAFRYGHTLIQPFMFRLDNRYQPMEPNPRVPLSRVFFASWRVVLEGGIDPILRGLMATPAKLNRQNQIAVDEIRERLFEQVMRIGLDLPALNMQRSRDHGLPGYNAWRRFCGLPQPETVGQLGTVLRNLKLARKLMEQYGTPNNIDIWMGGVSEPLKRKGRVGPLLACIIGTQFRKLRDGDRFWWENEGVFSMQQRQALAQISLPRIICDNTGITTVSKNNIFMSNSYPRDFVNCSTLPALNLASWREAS
# Procedure: FIG. 7 is a data plot depicting the effect of increasing concentrations of dapsone (4-aminophenylsulfone) on OPO activity in TS-treated saliva. Abbreviations: NO.1, NO.2, NO.3, NO4 and NO.5 correspond to saliva from 5 different subjects and plasma corresponds to commercial MPO.
# Analysis of OPO activity: OPO activity was measured according to the 2-nitrobenzoic-thiocyanate (NBS-SCN) assay, as previously described (20). Briefly, DTNB is reduced to NBS by addition of β-mercaptoethanol and decreases in NBS concentration by reaction with OSCN^−, a product of OPO, are monitored spectrophotometrically by measuring absorbance at 412 nm at pH 5.6 (18). One unit of enzyme activity was defined as the activity required to cleave 1 μmol of NBS/min at 22° C., using a molar extinction coefficient of 12,800 (20).
# Thus, in order to determine which of the MPO or SPO activity components of OPO activity are lost as a result of exposure to TS, OPO activity in TS-treated saliva was measured in the presence of increasing concentrations of […] dapsone.
# [5] = TS + saliva, 1 mM agent, 80 minutes (FIG. 19)
compound,measurement,setting,value
"C/C1=C2/[N-][C@H]([C@H](CC(N)=O)[C@@]2(C)CCC(=O)NC[C@@H](C)OP(=O)([O-])O[C@H]2[C@@H](O)[C@@H](n3cnc4cc(C)c(C)cc43)O[C@@H]2CO)[C@]2(C)N=C(/C(C)=C3N=C(/C=C4N=C1[C@@H](CCC(N)=O)C\4(C)C)[C@@H](CCC(N)=O)[C@]\3(C)CC(N)=O)[C@@H](CCC(N)=O)[C@]2(C)CC(N)=O.[Co+3].[OH-] [OH—CO, hydroxocobalamin]",prevention of KCN-associated loss of OPO activity,"[1]; 1 mM OH—CO, saliva treated 2 min with 1 mM KCN (FIG. 15)",completely prevent
same,prevention of loss of OPO activity in TS-treated saliva,"[1]; increasing amounts of OH—CO (0.5, 1, 2 mM, FIG. 14), 40 min after treatment with TS","prevent, to a significant extent, the loss of OPO activity"
same,prevention of TS- and KCN-associated loss of OPO activity,[1]; preincubation of saliva with OH—CO,could prevent both TS- and KCN-associated loss of OPO activity
"N#C[S-].[K+] [KSCN, potassium thiocyanate]",protection against TS-induced loss of OPO activity,[1],significant protection against loss of OPO activity
O=c1[nH]c(=O)c2[nH]c(=O)[nH]c2[nH]1 [uric acid],lymphocyte protein carbonylation levels,"[2]; uric acid added to suspension medium instead of saliva, 10 or 100 μM, no TS (FIG. 18)",reduced carbonylation levels
"N[C@@H](CCC(=O)N[C@@H](CS)C(=O)NCC(=O)O)C(=O)O [GSH, L-γ-glutamyl-1-cysteine-glycine]",loss of OPO activity in TS-treated saliva in the presence or absence of agent,[1]; 1 mM agent (FIG. 9),similar
same,effect on death rate of lymphocytes exposed to TS and saliva,[3],partially prevented
same,"% survival of TS + saliva-treated lymphocytes, Mean",[3]; 20 minute treatment,90.6%
same,"% survival of TS + saliva-treated lymphocytes, Mean",[3]; 80 minute treatment,28.8%
same,lymphocyte survival rate,"[3]; GSH added in the presence of 20 μM crotonaldehyde, 20 minutes",82.3%
same,lymphocyte survival rate,"[3]; GSH added in the presence of 20 μM crotonaldehyde, 80 minutes",81.3%
same,lymphocyte survival rate,"[3]; GSH added in the presence of 80 μM acrolein, 20 minutes",93.3%
same,lymphocyte survival rate,"[3]; GSH added in the presence of 80 μM acrolein, 80 minutes",87.4%
same,lymphocyte survival rate,"[3]; GSH added in the presence of 2 mM acetaldehyde, 20 minutes",93.3%
same,lymphocyte survival rate,"[3]; GSH added in the presence of 2 mM acetaldehyde, 80 minutes",93.6%
same,lymphocyte survival rate,"[3]; TS + saliva, 1 mM agent, 20 minutes (FIG. 19)",93.4%
same,lymphocyte survival rate,[3]; [5],24.3%
same,protection assessed by lymphocyte protein carbonylation levels,"[2]; TS + saliva, 1 mM antioxidant, 20 minutes (FIG. 20)",unique protection
same,protein carbonylation levels in aldehyde-treated lymphocytes,"[2]; aldehydes + 1 mM GSH, 20 min (FIG. 21)",protection
O=C1O[C@H]([C@@H](O)CO)C(O)=C1O [ascorbate],lymphocyte survival rate,"[3]; ascorbate (1 mM) added to PBS containing iron as FeCl3 (90 μM), no saliva (FIG. 23, Column 8)",77%
same,lymphocyte survival rate,"[3]; ascorbate (1 mM) added to saliva-containing medium without TS, 20 min (FIG. 23, column 6)",78%
C=CC=O [acrolein],OPO activity in presence of aldehydes present in TS,[1],unaffected
same,lymphocyte survival rate,"[3]; acrolein with saliva (second of the two 'respectively' values, order presumed)",66.4%
same,lymphocyte survival rate,"[3]; acrolein without saliva (first of the two 'respectively' values, order presumed)",57.9%
same,death rates at 80 minutes,[3],57.3%
same,lymphocyte survival rates after 20 minutes,[3],63.3%
same,lymphocyte protein carbonylation levels,"[2]; 80 μM acrolein + saliva vs acrolein alone, 20 min (FIG. 22)",did not enhance carbonylation levels
[Cl][Fe]([Cl])[Cl] [FeCl3],inhibition of OPO activity on exposure of saliva,"[1]; 1 mM ascorbate or 100 μM FeCl3, 2 h (FIG. 10)",did not inhibit OPO activity
"CC(=O)N[C@@H](CS)C(=O)O [NAC, N-acetylcysteine]",effect on death rate of lymphocytes exposed to TS and saliva,[3],did not alter the death rate
CC(=O)N(O)CCCCCNC(=O)CCC(=O)N(O)CCCCCNC(=O)CCC(=O)N(O)CCCCCN [deferoxamine],lymphocyte survival rate,[3]; [5],23.7%
C/C=C/C=O [crotonaldehyde],OPO activity in presence of aldehydes present in TS,[1],unaffected
same,death rates at 80 minutes,[3],75.3%
same,lymphocyte survival rates after 20 minutes,[3],80.3%
"Nc1ccc(S(=O)(=O)c2ccc(N)cc2)cc1 [dapsone, 4-aminophenylsulfone]",Loss of OPO activity,"[1]; 150 μM dapsone, TS-treated saliva (FIG. 7)",60-85%
same,loss of OPO activity in the presence or absence of agent,"[1]; 150 μM dapsone, TS-treated saliva containing ~40% MPO (FIG. 8)",similar
same,control MPO activity,[4],unaffected
CC=O [acetaldehyde],death rates at 80 minutes,[3],92.7%
